pEC50: −log10 of the molar value. Where two headings read alike, the source gives them in different places.
Target: T1, mAChR M4 (Homo sapiens, UniProt P08173)
T1 construct: expressed in transfected cells; host or cells: CHO-K1 cells stably transfected with M4 cDNA and chimeric G-protein Gqi5
T1 sequence (P08173 1-479): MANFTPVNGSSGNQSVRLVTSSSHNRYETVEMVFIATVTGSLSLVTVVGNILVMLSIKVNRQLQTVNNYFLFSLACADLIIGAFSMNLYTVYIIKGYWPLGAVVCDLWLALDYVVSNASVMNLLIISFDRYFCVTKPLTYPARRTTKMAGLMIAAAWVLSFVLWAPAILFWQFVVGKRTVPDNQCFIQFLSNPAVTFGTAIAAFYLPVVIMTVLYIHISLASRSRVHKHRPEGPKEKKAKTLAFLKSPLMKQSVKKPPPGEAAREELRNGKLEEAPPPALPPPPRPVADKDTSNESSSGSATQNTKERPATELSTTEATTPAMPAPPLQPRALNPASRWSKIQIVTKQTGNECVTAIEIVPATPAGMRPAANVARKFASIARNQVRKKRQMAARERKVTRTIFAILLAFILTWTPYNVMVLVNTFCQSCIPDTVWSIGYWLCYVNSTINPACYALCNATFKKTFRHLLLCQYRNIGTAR
Assay: mAChR M4 cell-based functional assay (calcium mobilization, potentiation of EC20 acetylcholine response)
Conditions: for pEC50: mAChR M4 cell-based functional assay, >10,000 estimated for low potency compounds without plateau, read-out: EC50; for EC50: EC50 (nM)

Row | Emax at 30 µM (% ACh maximum at 30 μM) [%] | pEC50 | Emax (%)* (% ACh maximum at 30 μM) [%] | SMILES | EC50 [nM]
1 | 32 | < 5.00 | – | CC(=O)NC1CN(C(=O)c2sc3nnc(C)c(C)c3c2N)C1 [Example B157] | –
2 | 68 | 7.10 | – | Cc1nnc2sc(C(=O)NCc3ccc(CN4CCCCC4)cc3)c(N)c2c1C [Example B504] | –
3 | 48 | < 5.00 | – | CS(=O)(=O)c1ccc(CNC(=O)c2sc3nnc(-c4ccccc4)c(-c4ccccc4)c3c2N)cc1 [Example B41] | –
4 | 76 | 7.42 | – | Cc1nnc2sc(C(=O)NCc3ccc(CN4CCCC4)cc3)c(N)c2c1C [Example B492] | –
5 | 64 | 5.30 | – | Cc1nnc2sc(C(=O)N3CCC(NC(=O)c4ccncc4)C3)c(N)c2c1C (centres unmarked) [Example B204] | –
6 | 39 | 5.72 | – | COc1cccc(C2(OC)CN(C(=O)c3sc4nnc(C)c(C)c4c3N)C2)c1 [Example B310] | –
7 | 62 | 7.92 | – | Cc1nnc2sc(C(=O)NC3CN(c4ccccc4)C3)c(N)c2c1C [Example B481] | –
8 | 81 | 5.89 | – | Cc1nnc2sc(C(=O)NCc3ccco3)c(N)c2c1C [Example B102] | –
9 | 47 | 6.00 | – | Cc1nnc2sc(C(=O)N3CC4(CN(C(=O)OCc5ccccc5)C4)C3)c(N)c2c1C [Example B398] | –
10 | 78 | 6.23 | – | Cc1nnc2sc(C(=O)NC3CCN(C(=O)c4c(F)cccc4F)C3)c(N)c2c1C (centres unmarked) [Example B243] | –
11 | 44 | 6.00 | – | Cc1nnc2sc(C(=O)NCc3ccc(-c4ccc5c(c4)OCO5)cc3)c(N)c2c1C [Example B501] | –
12 | 46 | 5.48 | – | Cc1nnc2sc(C(=O)N3CC4(C3)CN(C(=O)C3CCCC3)C4)c(N)c2c1C [Example B402] | –
13 | 80 | 6.28 | – | Cc1nnc2sc(C(=O)NC3COC3)c(N)c2c1C [Example B24] | –
14 | 46 | < 5.00 | – | Cc1nnc2sc(C(=O)NCc3ncccn3)c(N)c2c1C [Example B3] | –
15 | 68 | 6.26 | – | Cc1nnc2sc(C(=O)NC3CCN(S(=O)(=O)c4ccccc4)C3)c(N)c2c1C (centres unmarked) [Example B229] | –
16 | 55 | 5.34 | – | COc1ccc(CNC2CN(C(=O)c3sc4nnc(C)c(C)c4c3N)C2)cc1 [Example B61] | –
17 | 65 | 7.19 | – | Cc1nnc2sc(C(=O)NCc3ccc(S(=O)(=O)N(C)C)cc3)c(N)c2c1C [Example B450] | –
18 | 49 | 6.01 | – | Cc1nnc2sc(C(=O)N3CC4CN(c5ccc(C#N)nc5)CC4C3)c(N)c2c1C (centres unmarked) [Example B436] | –
19 | 30 | 6.42 | – | COc1cncc(NC(=O)c2sc3nnc(C)c(C)c3c2N)c1 [Example B72] | –
20 | 69 | 7.33 | – | Cc1nnc2sc(C(=O)NCc3ccc(-n4ccccc4=O)c(F)c3)c(N)c2c1C [Example B483] | –
21 | 82 | 7.49 | – | Cc1cc(-c2ccc(CNC(=O)c3sc4nnc(C)c(C)c4c3N)cc2)cnc1Cl [Example B458] | –

Row | Emax at 30 µM (% ACh maximum at 30 μM) [%] | pEC50 | Emax (%)* (% ACh maximum at 30 μM) [%] | SMILES | EC50 [nM]
22 | 46 | 6.12 | – | COc1ccc(S(=O)(=O)C2CN(C(=O)c3sc4nnc(C)c(C)c4c3N)C2)cc1 [Example B417] | –
23 | 65 | 7.27 | – | Cc1nnc2sc(C(=O)NC3CN(S(=O)(=O)c4cccc(Cl)c4F)C3)c(N)c2c1C [Example B139] | –
24 | 56 | 5.44 | – | Cc1nnc2sc(C(=O)N3CC(NCc4ccccc4)C3)c(N)c2c1C [Example B65] | –
25 | 38 | 5.41 | – | Cc1nnc2sc(C(=O)N3CCC(c4ccccc4)CC3)c(N)c2c1C [Example B115] | –
26 | 88 | 6.52 | – | Cc1nnc2sc(C(=O)NC3CN(C(=O)c4ccc(F)cc4F)C3)c(N)c2c1C [Example B391] | –
27 | 68 | 6.51 | – | Cc1nnc2sc(C(=O)NC3CCN(S(=O)(=O)c4ccccc4OC(F)(F)F)C3)c(N)c2c1C (centres unmarked) [Example B209] | –
28 | 48 | 6.29 | – | Cc1ccc(CNC(=O)c2sc3nnc(C)c(C)c3c2N)nc1 [Example B470] | –
29 | 68 | 7.09 | – | Cc1nnc2sc(C(=O)NCc3ccc(CN4CCSCC4)cc3)c(N)c2c1C [Example B493] | –
30 | – | 7.70 | 84 | Cc1nnc2sc(C(=O)NCc3ccc(C(C)(O)C(F)(F)F)cc3)c(N)c2c1C (single isomer, unassigned) [Example B187] | –
31 | 64 | 6.28 | – | Cc1nnc2sc(C(=O)NC3CCN(C(=O)CCCc4ccccc4)C3)c(N)c2c1C (centres unmarked) [Example B258] | –
32 | 76 | 7.96 | – | Cc1ccccc1OC(=O)N1CC(NC(=O)c2sc3nnc(C)c(C)c3c2N)C1 [Example B361] | –
33 | 71 | 6.96 | – | Cc1nnc2sc(C(=O)NC3CN(C(=O)c4cccc(F)c4)C3)c(N)c2c1C [Example B403] | –
34 | 66 | 7.33 | – | Cc1nnc2sc(C(=O)NCc3ccc(O)cc3)c(N)c2c1C [Example B95] | –
35 | 59 | 7.28 | – | Cc1nnc2sc(C(=O)NC3CN(C(=O)N(C)c4ccccc4)C3)c(N)c2c1C [Example B423] | –
36 | 76 | 7.39 | – | Cc1nnc2sc(C(=O)NCc3ccc(S(=O)(=O)C(C)(C)C)cc3)c(N)c2c1C [Example B47] | –
37 | 56 | 7.09 | – | Cc1nnc2sc(C(=O)NC3CN(S(=O)(=O)c4ccccc4)C3)c(N)c2c1C [Example B159] | –
38 | 53 | 6.21 | – | Cc1nnc2sc(C(=O)NC3CCN(c4cccnc4)C3)c(N)c2c1C (centres unmarked) [Example B261] | –
39 | 35 | 6.54 | – | Cc1nnc2sc(C(=O)N3CC(F)(c4ccc(-c5ccncc5)cc4)C3)c(N)c2c1C [Example B318] | –
40 | 32 | < 5.00 | – | CCCOC(=O)NC(CCl)CNC(=O)c1sc2nnc(C)c(C)c2c1N (centres unmarked) [Example B165] | –
41 | 64 | 7.51 | – | Cc1nnc2sc(C(=O)NC3CCN(C(=O)OCc4ccccc4)C3)c(N)c2c1C (centres unmarked) [Example B206] | –
42 | 54 | < 5.00 | – | Cc1nnc2sc(C(=O)N3CC(F)(c4ccc(Cl)cc4)C3)c(N)c2c1C [Example B295] | –

Row | Emax at 30 µM (% ACh maximum at 30 μM) [%] | pEC50 | Emax (%)* (% ACh maximum at 30 μM) [%] | SMILES | EC50 [nM]
43 | 68 | 7.52 | – | Cc1nnc2sc(C(=O)NCc3ccc(OC(F)(F)F)cc3)c(N)c2c1C [Example B181] | –
44 | 41 | < 5.00 | – | Cc1nnc2sc(C(=O)N3CC(NCc4ccco4)C3)c(N)c2c1C [Example B64] | –
45 | 60 | < 5.00 | – | Nc1c(C(=O)NCc2cccc(F)c2F)sc2nnccc12 [Example B18] | –
46 | 63 | 5.47 | – | Cc1nnc2sc(C(=O)N3CCC(NC(=O)CC4CCCCC4)C3)c(N)c2c1C (centres unmarked) [Example B230] | –
47 | 72 | 7.37 | – | Cc1nnc2sc(C(=O)NC3CN(S(=O)(=O)c4ccccc4F)C3)c(N)c2c1C [Example B140] | –
48 | 46 | 7.04 | – | Cc1nnc2sc(C(=O)N3CC(Sc4ccccc4)C3)c(N)c2c1C [Example B405] | –
49 | 52 | < 5.00 | – | CCCCCC(=O)NC1CN(C(=O)c2sc3nnc(C)c(C)c3c2N)C1 [Example B175] | –
50 | 97 | 6.77 | – | Cc1nnc2sc(C(=O)NCc3ccccc3)c(N)c2c1C [Example B9] | –
51 | 68 | 6.74 | – | Cc1nnc2sc(C(=O)NC3CCN(c4cccc(Cl)c4)C3)c(N)c2c1C (centres unmarked) [Example B268] | –
52 | 74 | 6.92 | – | Cc1nnc2sc(C(=O)NC3CN(C(=O)OCCN(C)C)C3)c(N)c2c1C [Example B341] | –
53 | 72 | 5.74 | – | Cc1nnc2sc(C(=O)NCc3ccc(-c4cc(O)ccc4Cl)cc3)c(N)c2c1C [Example B500] | –
54 | 66 | 6.77 | – | COc1ccc(C#CCNC(=O)c2sc3nnc(C)c(C)c3c2N)cc1 [Example B373] | –
55 | 73 | 6.52 | – | COc1ccc([C@@H]2C[C@H]2NC(=O)c2sc3nnc(C)c(C)c3c2N)cc1 (single isomer, unassigned) [Example B32] | –
56 | 89 | 6.30 | – | Cc1nnc2sc(C(=O)NCC3CC3)c(N)c2c1C [Example B6] | –
57 | 59 | 7.77 | – | COc1ccccc1OC(=O)N1CC(NC(=O)c2sc3nnc(C)c(C)c3c2N)C1 [Example B376] | –
58 | 72 | 5.89 | – | Cc1nnc2sc(C(=O)NC3CCN(C(=O)CCc4ccccc4)C3)c(N)c2c1C (centres unmarked) [Example B221] | –
59 | 29 | 5.77 | – | Cc1nnc2sc(C(=O)Nc3ccccn3)c(N)c2c1C [Example B36] | –
60 | 71 | 7.35 | – | Cc1nnc2sc(C(=O)NCc3cc(F)c(F)cc3F)c(N)c2c1C [Example B45] | –
61 | 61 | 6.20 | – | Cc1nnc2sc(C(=O)N3CCC(c4ccccc4)C3)c(N)c2c1C (centres unmarked) [Example B112] | –
62 | 70 | 6.82 | – | Cc1nnc2sc(C(=O)NCc3ccc(-n4cccn4)cc3)c(N)c2c1C [Example B506] | –

Row | SMILES | Emax at 30 µM (% ACh maximum at 30 μM) [%] | pEC50 | Emax (%)* (% ACh maximum at 30 μM) [%] | EC50 [nM]
63 | Cc1nnc2sc(C(=O)NCc3ccc(S(=O)(=O)C4CC4)cc3)c(N)c2c1C [Example B92] | 53 | – | – | 23
64 | CSc1ccc(CNC(=O)c2sc3nnc(C)c(C)c3c2N)cc1 [Example B26] | 76 | – | – | 11
